# Experimental data as given in ChEMBL document CHEMBL3886288, “Thieno[3,2-D]pyrimidine derivatives having inhibitory activity for protein kinases” (2015).
# Experiments:
# [1] = target: Macrophage colony-stimulating factor 1 receptor (Homo sapiens, UniProt P07333); experiment: Kinase Activity: The compounds prepared in Examples were tested for inhibitory activity against FMS, DDR1 and DDR2 kinases using Kinase Screening and Profiling Service (Invitrogen, U.S.).
# [2] = target: Serine/threonine-protein kinase B-raf (Homo sapiens, UniProt P15056, V600E); experiment: (§1) Kinase Activity: The compounds prepared in Examples were tested for inhibitory activity against three subtypes of RAF, i.e., RAF1 Y340D Y341D (C-RAF), B-RAF normal type and B-RAF^V600E using Kinase Profiling Service (Invitrogen, U.S.) according to the manufacturer's instructions. The levels of enzymatic inhibition of the compounds were calculated as percent inhibition at various concentrations.
# [3] = target: Serine/threonine-protein kinase B-raf (Homo sapiens, UniProt P15056); experiment: as §1
# [4] = target: RAF proto-oncogene serine/threonine-protein kinase (Homo sapiens, UniProt P04049, Y340D/Y341D); experiment: as §1
# RAF proto-oncogene serine/threonine-protein kinase, sequence (P04049 whole entry Y340D/Y341D): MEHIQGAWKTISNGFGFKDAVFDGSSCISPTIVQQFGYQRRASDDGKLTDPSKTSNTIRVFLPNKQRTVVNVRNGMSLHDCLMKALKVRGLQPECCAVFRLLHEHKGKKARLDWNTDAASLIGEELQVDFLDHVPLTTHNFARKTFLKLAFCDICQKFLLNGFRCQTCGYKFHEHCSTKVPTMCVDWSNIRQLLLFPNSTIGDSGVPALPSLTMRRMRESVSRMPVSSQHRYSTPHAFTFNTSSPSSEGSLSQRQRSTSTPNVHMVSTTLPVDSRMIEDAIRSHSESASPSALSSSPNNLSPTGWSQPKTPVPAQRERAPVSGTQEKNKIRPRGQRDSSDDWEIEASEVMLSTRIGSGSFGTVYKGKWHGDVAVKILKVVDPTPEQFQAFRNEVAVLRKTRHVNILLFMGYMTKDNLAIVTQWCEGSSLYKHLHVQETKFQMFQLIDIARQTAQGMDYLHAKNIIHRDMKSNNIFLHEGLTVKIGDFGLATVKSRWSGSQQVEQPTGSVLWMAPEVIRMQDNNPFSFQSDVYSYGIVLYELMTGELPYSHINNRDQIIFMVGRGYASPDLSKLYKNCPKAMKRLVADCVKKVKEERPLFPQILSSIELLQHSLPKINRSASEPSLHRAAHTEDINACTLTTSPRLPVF
# Serine/threonine-protein kinase B-raf (Homo sapiens, UniProt P15056, V600E), sequence (P15056 2-766 V600E limits assumed): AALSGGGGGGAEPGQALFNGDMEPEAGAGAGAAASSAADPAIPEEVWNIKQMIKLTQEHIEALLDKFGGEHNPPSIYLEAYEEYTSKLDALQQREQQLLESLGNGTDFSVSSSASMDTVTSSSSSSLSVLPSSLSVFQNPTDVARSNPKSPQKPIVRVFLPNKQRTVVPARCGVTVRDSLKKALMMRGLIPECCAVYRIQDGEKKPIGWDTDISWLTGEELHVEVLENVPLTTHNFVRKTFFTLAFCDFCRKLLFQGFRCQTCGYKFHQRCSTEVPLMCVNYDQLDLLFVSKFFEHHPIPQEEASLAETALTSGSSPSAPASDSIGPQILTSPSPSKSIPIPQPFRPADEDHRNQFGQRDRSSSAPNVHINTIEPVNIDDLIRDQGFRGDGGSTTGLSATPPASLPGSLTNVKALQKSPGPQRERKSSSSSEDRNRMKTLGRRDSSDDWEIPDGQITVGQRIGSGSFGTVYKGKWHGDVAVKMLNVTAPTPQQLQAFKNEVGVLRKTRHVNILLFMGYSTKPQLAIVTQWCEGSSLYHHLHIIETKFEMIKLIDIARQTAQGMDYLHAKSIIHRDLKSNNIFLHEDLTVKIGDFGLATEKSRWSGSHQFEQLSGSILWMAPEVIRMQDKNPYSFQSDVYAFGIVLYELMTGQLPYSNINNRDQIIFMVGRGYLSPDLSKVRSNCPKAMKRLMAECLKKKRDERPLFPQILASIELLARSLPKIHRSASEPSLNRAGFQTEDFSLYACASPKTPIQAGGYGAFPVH
# Serine/threonine-protein kinase B-raf (Homo sapiens, UniProt P15056), sequence (P15056 whole entry): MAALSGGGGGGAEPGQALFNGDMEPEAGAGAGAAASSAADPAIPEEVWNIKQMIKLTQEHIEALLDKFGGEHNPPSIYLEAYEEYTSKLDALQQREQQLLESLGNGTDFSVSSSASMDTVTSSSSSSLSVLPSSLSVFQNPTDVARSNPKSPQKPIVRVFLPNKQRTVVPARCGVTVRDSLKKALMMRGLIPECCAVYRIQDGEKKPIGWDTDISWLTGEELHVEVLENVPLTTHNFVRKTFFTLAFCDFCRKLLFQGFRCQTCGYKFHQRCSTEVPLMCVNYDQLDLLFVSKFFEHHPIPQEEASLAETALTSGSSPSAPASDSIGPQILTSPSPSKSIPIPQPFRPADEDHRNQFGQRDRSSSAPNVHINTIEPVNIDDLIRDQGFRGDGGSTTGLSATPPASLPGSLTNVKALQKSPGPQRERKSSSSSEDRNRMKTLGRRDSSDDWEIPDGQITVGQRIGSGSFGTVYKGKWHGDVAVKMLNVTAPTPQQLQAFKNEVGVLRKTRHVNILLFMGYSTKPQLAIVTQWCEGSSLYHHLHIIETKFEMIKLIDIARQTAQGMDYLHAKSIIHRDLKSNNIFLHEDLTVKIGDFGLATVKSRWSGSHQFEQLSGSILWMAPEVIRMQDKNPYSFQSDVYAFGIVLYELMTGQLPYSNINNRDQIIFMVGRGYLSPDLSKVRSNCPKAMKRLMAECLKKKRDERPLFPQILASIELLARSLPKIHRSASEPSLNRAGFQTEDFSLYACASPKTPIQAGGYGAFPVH
# Macrophage colony-stimulating factor 1 receptor, sequence (P07333 whole entry): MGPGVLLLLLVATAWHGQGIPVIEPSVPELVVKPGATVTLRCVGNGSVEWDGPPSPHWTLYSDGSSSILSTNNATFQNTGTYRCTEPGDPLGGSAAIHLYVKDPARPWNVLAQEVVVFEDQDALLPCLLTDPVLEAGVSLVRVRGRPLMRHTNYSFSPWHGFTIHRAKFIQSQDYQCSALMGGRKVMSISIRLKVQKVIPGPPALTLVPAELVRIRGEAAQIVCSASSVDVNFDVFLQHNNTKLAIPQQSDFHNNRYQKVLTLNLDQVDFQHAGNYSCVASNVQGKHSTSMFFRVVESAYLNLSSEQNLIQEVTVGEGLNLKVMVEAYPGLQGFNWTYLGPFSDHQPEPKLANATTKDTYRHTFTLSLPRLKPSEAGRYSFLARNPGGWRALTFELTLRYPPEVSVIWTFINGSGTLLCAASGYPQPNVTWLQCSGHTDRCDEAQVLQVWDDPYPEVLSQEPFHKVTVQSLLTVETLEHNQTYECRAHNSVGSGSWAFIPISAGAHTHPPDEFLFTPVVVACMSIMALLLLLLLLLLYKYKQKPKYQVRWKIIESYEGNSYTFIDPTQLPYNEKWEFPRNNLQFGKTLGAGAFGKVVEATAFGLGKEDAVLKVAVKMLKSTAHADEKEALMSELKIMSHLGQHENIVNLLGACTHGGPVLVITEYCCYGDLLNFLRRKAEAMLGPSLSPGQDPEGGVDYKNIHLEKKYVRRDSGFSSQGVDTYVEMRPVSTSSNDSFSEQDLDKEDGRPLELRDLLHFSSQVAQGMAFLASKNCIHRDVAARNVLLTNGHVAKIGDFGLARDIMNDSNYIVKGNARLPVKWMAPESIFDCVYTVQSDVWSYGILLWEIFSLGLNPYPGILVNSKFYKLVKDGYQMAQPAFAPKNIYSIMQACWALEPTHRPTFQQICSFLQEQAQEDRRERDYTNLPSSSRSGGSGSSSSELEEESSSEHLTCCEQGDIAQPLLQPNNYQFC
structure (smiles),measurement,setting,value
Cc1ccc2c(Nc3cccc(Cl)c3)nccc2c1NC(=O)c1csc2c(N)ncnc12,IC50,[1],0.057 µM
same,IC50,[2],0.009 µM
same,IC50,[3],0.066 µM
same,IC50,[4],0.005 µM
